Laboratory results: patent US10077236B2, “Azacyclic constrained analogs of FTY720” (The Regents of the University of California, priority 2013, dated 2018)
Where two headings read alike, the source gives them in different places.

Experiments:
[1] = target: T1, sphingosine kinase 2 (Mus musculus, UniProt Q9JIA7); experiment: Phosphorylation by sphingosine kinase 2 in cells; type: cell-based
T1 construct: endogenous in cells
T1 sequence (Q9JIA7 1-617): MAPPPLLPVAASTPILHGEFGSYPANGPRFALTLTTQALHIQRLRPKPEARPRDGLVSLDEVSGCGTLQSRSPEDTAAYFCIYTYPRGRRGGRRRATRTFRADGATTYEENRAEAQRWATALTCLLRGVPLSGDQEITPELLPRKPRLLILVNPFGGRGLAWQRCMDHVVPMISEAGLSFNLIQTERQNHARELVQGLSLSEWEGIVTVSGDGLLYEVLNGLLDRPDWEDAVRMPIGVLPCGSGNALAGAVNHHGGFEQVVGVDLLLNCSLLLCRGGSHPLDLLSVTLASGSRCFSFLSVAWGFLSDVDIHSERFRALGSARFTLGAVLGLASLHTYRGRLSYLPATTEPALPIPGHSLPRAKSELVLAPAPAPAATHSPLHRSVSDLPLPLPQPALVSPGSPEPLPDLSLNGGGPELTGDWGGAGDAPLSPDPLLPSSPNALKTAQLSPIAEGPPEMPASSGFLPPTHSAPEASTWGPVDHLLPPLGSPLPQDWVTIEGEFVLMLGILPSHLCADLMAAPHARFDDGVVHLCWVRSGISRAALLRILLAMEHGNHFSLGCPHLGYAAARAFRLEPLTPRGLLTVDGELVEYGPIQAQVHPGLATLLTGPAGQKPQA
Method: The importance of phosphorylation in the activity of compound 6 was then examined. In this study MEF knockout lines that show the same differential sensitivity to compound 6 relative to its enantiomers as leukemia cells were used (FIG. 10h). […] A phosphate and a non-phosphorylatable analog of compound 6 were then tested.

[2] = system: PC3 prostate cancer cell line; experiment: Cell viability assay, PC3; type: cell-based, human; conditions: 72 h, vital dye exclusion and flow cytometry, read-out: Mean IC50 (+/- SEM) in cell viability assay, PC3 prostate
Method: (§1) Flow cytometry: Much of the biological activity presented is shown through flow cytometry data. […] Here, IC50 flow cytometry assays were used. […] To measure nutrient receptor expression following exposure to FTY720 and azacyclic constrained analogs of FTY720, surface 4F2hc expression was measured after 3 hours of drug treatment by staining 150,000 cells with phycoerythrin-conjugated mouse anti-human CD98 (by BD Biosciences™). Analysis was restricted to viable cells. All samples for the disclosed sets of data were analyzed on a BD LSR II flow cytometer and data analyzed with FlowJo™ software (by Treestar™). IC50's were calculated and statistical tests were performed using GraphPad Prism™.

[3] = system: Nalm-6 Ph- ALL cell line; experiment: Cell viability assay, Nalm-6; type: cell-based, human; conditions: 72 h, vital dye exclusion and flow cytometry, read-out: Mean IC50 (+/- SEM) in cell viability assay, Nalm-6 Ph- ALL
Source text: (§2) Leukemia cell assays: Effects of chemical changes on ability to kill cells as observed in cell viability assays using the BCR-ABL positive human acute lymphoblastic leukemia (ALL) cell line, Sup-B15 are described. Assays using the Sup-B15 cell line were designed to determine efficacy of azacyclic constrained small molecule analogs of FTY720 in killing leukemia cells. Analogs were generated using the synthesis methods mentioned above. Sup-B15 cells were maintained at 2-3 million/mL in RPMI 1640 (by Mediatech™) supplemented with 10% fetal calf serum (by Sigma-Aldrich™), 10 mM Hepes (by Mediatech™), 55 μM β-mercaptoethanol (by Sigma-Aldrich™), 2 mM L-glutamine (by Mediatech™), and antibiotics. BV173, Nalm-6, and Blin-1 were maintained at 1-2 million/mL and CCRF-CEM at less than 500,000/mL in the same medium. BMp190 cells were created by transducing murine bone marrow cells with pMIC-p190 which expresses the p190 isoform of BCR-Abl and human CD4 from an IRES; these cells were kept at 1-2 million/mL in RPMI supplemented as above.
(§3) Flow cytometry: Much of the biological activity presented is shown through flow cytometry data. […] Here, IC50 flow cytometry assays were used. In them, viability was determined at 72 hours by vital dye exclusion [propium iodide or DAPI (4′,6-diamindino-2-phenylindole)]. To measure nutrient receptor expression following exposure to FTY720 and azacyclic constrained analogs of FTY720, surface 4F2hc expression was measured after 3 hours of drug treatment by staining 150,000 cells with phycoerythrin-conjugated mouse anti-human CD98 (by BD Biosciences™). Analysis was restricted to viable cells.
(§4) All samples for the disclosed sets of data were analyzed on a BD LSR II flow cytometer and data analyzed with FlowJo™ software (by Treestar™). IC50's were calculated and statistical tests were performed using GraphPad Prism™.

[4] = system: BV173 Ph+ ALL cell line; experiment: Cell viability assay, BV173; type: cell-based, human; conditions: 72 h, vital dye exclusion and flow cytometry, read-out: Mean IC50 (+/- SEM) in cell viability assay, BV173 Ph+ ALL
Source text: as §2, §3, §4

[5] = system: BMp190 cells (murine bone marrow transduced with BCR-Abl p190); experiment: Cell viability assay, BCR-Abl p190-expressing murine bone marrow (BM-p190); type: cell-based; conditions: 72 h, vital dye exclusion and flow cytometry, read-out: Mean IC50 (+/- SEM) in cell viability assay, BM-p190
Source text: as §2, §3, §4

[6] = system: DU145 prostate cancer cell line; experiment: Cell viability assay, DU145; type: cell-based, human; conditions: 72 h, vital dye exclusion and flow cytometry, read-out: Mean IC50 (+/- SEM) in cell viability assay, DU145 prostate
Method: as §1

[7] = system: Blin-1 Ph- ALL cell line; experiment: Cell viability assay, Blin-1; type: cell-based, human; conditions: 72 h, vital dye exclusion and flow cytometry, read-out: Mean IC50 (+/- SEM) in cell viability assay, Blin-1 Ph- ALL
Source text: as §2, §3, §4

[8] = system: Sup-B15 BCR-ABL positive human acute lymphoblastic leukemia (ALL) cell line; experiment: Cell viability assay, Sup-B15 leukemia cells (flow cytometry, vital dye exclusion); type: cell-based; conditions: for IC50: 72 h, vital dye exclusion and flow cytometry, read-out: Mean IC50 (+/- SEM) in cell viability assay, SupB15 Ph+ ALL; for ability to kill leukemia cells, potency compared in words: Sup-B15 cell viability assays
Source text: as §2, §3, §4

[9] = system: CCRF-CEM Ph- ALL cell line; experiment: Cell viability assay, CCRF-CEM; type: cell-based, human; conditions: 72 h, vital dye exclusion and flow cytometry, read-out: Mean IC50 (+/- SEM) in cell viability assay, CCRF-CEM Ph- ALL
Source text: as §2, §3, §4

[10] = system: circulating lymphocytes; experiment: Lymphocyte sequestration (circulating lymphocytes); type: in vivo, mouse; conditions: number of circulating lymphocytes 12 h after dosage
Source text: (§5) As previously discussed, FTY720 itself cannot be used in cancer patients because phosphorylation of FTY720 by SphKs makes FTY720-P, which acts at S1P receptors to cause bradycardia and immunosuppression (on-target effect for primary use).

[11] = Mouse heart rate by telemetry; type: in vivo; conditions: telemetry for 24 h after administration of anti-cancer dose
Source text: as §5

CCCCCCCCc1ccc(CO[C@H]2CN[C@H](CO)C2)cc1.Cl [Compound 5]
phosphorylation by sphingosine kinase 2 in cells [1]: phosphorylated by sphingosine kinase 2 in cells
IC50 [2]: 14.3 ± 1.2 µM
IC50 [3]: 15 ± 2.1 µM
IC50 [4]: 10.4 ± 0.7 µM
IC50 [5]: 5.7 ± 1.1 µM
IC50 [6]: 10.8 ± 0.4 µM
IC50 [7]: 7.5 ± 0.1 µM
IC50 [8]: 7.7 ± 0.8 µM
IC50 [9]: 11 ± 1.3 µM

CCCCCCCCc1ccc(CO[C@H]2CN[C@H](C)C2)cc1.Cl [Compound 13]
ability to kill leukemia cells, potency compared in words [8]: no detectable effect on the potency

CCCCCCCCc1ccc(CO[C@@H]2CN[C@@H](C)C2)cc1.Cl [Compound 14]
ability to kill leukemia cells, potency compared in words [8]: decreased the activity

CCCCCCCCc1ccc(CO[C@@H]2CN[C@@H](COC)C2)cc1.Cl [Compound 15, (2R,4S)-2-(methoxymethyl)-4-((4-octylbenzyl)oxy)-pyrrolidine hydrochloride salt]
ability to kill leukemia cells, potency compared in words ([8]; hydrochloride salt): reduced the potency

CCCCCCCCc1ccc(COC2CCNC2)cc1.Cl (centres unmarked) [Compound 16]
ability to kill leukemia cells, potency compared in words [8]: only a marginal effect on activity

CCCCCCCCc1ccc(CCC(N)(CO)CO)cc1.Cl [FTY720, 2-Amino-2-[2-(4-octylphenyl)ethyl]propane 1,3-diol hydrochloride]
lymphocyte sequestration / immunosuppression [10]: causes lymphocyte sequestration
effect on heart rate [11]: dramatic drop in heart rate
IC50 ([2]; Homo sapiens): 9.8 ± 0.9 µM
IC50 ([3]; Homo sapiens, NALM-6): 9.6 ± 1.9 µM
IC50 ([4]; Homo sapiens, BV-173): 6.3 ± 0.4 µM
IC50 ([5]; Mus musculus): 3.3 ± 0.2 µM
IC50 ([6]; Homo sapiens, DU-145): 6.5 ± 0.9 µM
IC50 ([7]; Homo sapiens): 5.5 ± 0.1 µM
IC50 ([8]; Homo sapiens, SUP-B15): 6.8 ± 0.7 µM
IC50 ([9]; Homo sapiens, CCRF-CEM): 6.8 ± 0.3 µM
